Some results are limits rather than exact numbers.

The assay addresses T1, AhR (Homo sapiens, UniProt P35869).
T1 construct: The HepG2 CYP1A1-Luc cells do express basal luciferase activity that can be increased via potent AhR agonists or decreased via potent AhR antagonists; endogenous in cells
T1 sequence (P35869 11-848): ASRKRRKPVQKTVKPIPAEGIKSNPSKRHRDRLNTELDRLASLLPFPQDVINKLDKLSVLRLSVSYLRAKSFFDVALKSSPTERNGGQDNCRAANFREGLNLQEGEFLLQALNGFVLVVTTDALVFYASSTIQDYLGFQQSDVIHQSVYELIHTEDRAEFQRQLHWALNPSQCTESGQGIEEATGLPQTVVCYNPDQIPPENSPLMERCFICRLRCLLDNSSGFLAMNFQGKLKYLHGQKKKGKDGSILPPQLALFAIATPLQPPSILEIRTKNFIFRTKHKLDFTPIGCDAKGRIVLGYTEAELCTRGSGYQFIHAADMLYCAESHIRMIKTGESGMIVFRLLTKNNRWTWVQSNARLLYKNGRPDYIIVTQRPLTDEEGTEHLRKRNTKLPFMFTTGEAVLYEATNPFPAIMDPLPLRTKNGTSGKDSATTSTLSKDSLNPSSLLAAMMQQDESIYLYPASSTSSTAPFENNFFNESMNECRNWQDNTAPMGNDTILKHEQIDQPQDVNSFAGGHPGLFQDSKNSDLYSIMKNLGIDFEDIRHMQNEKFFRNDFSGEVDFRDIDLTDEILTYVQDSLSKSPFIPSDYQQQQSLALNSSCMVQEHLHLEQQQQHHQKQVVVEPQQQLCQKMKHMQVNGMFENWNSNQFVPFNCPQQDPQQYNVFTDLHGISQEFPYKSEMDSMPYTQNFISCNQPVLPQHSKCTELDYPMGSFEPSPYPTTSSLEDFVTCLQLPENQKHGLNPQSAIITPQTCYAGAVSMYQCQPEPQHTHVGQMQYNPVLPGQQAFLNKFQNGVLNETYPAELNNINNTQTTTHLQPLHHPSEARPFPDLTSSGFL
Nature of the assay: AhR direct luciferase reporter assay in HepG2 cells (HepG2 CYP1A1-LUC). The format is cell-based. As to conditions: luciferase activity after 18 hours, medium with no exogenous AhR agonist or 10 nM VAF347, read-out: AhR potency (AhR antagonistic potency, IC50 class). From the text: AhR Direct Luciferase Reporter Assay in HepG2 Cells
A stable cell line (HepG2 CYP1A1-LUC) was used in which part of the promoter region of the human CYP1A1 gene is stably integrated into the genome of human HepG2 hepatocytes (DSZM #ACC 180) in front of a Photinus pyralis Firefly Luciferase gene. A 1210 bp fragment comprising part of the human CYP1A1 promoter was isolated via SacI and BgIII restriction digestion from Lightswitch Clone S714555 (SwitchGearGenomics) and inserted between the SacI and BgIII sites in pGL4.30 (Promega #E8481) in front of the Firefly Luciferase gene. The resulting vector was linearized with NotI, transfected into HepG2 cells (DSMZ #ACC 180) and stably transfected clones selected with 250 μg/ml Hygromycin B. After repetitive rounds of subcloning and testing for robustly regulated luciferase activity after AhR agonist stimulation, a stable clonal HepG2 CYP1A1-Luc cell line was selected.
The HepG2 CYP1A1-Luc cells do express basal luciferase activity that can be increased via potent AhR agonists or decreased via potent AhR antagonists, added to the growth medium of the cells.
In typical reporter assays performed with this cell line, cells are grown in 96-well plates and AhR modulators are titrated into the growth medium in serial dilutions in RPMI-1640 Medium (Sigma #R7509) supplemented with 8,6% fetal calf serum (Sigma #F7524) and containing either no exogenous AhR agonist or 10 nM of the potent AhR agonist VAF347 (Calbiochem #182690). Cells are further cultivated for 18 hours and luciferase activities are determined from extracts of cells in buffers containing D-Luciferine and ATvP using a LUMIstar Optima microplate Luminometer from BMG Labtech.

Turning to `CCc1ccccc1-c1cc2ccc(NC(=O)c3ncnn3C)nc2[nH]1` [4/1], the IC50 is under 100 nM.
The value for `Cn1ncnc1C(=O)Nc1ccc2cc(-c3ccccc3C#N)[nH]c2n1` [4/2] was 100 to 1000 nM; that for `Cn1ncnc1C(=O)Nc1ccc2cc(-c3cc(F)ccc3C#N)[nH]c2n1` [4/3] was 100 to 1000 nM; that for `Cn1ccnc1C(=O)Nc1ccc2cc(-c3ccccc3C(F)F)[nH]c2n1` [4/4] was under 100 nM.
Consider `Cn1ncnc1C(=O)Nc1ccc2c(F)c(-c3ccccc3C(F)F)[nH]c2n1` [4/6], for which the IC50 was in the range of 100 to 1000 nM.
The value for `CCn1ncnc1C(=O)Nc1ccc2cc(-c3ccccc3C(F)F)[nH]c2n1` [4/7] was under 100 nM.
As for `Cn1ncnc1C(=O)Nc1ccc2cc(-c3cc(C#N)ccc3C(F)(F)F)[nH]c2n1` [4/8], the IC50 was under 100 nM.
For `Cc1ocnc1C(=O)Nc1ccc2cc(-c3ccccc3C(F)F)[nH]c2n1` [5/1] the value was under 100 nM; for `Cc1scnc1C(=O)Nc1ccc2cc(-c3ccccc3C(F)F)[nH]c2n1` [5/2], under 100 nM.
Take `Cc1ccccc1-c1cc2ccc(NC(=O)c3ccnn3C)nc2[nH]1` [Example 1, 1-Methyl-N-(2-(o-tolyl)-1H-pyrrolo[2,3-b]pyridin-6-yl)-1H-pyrazole-5-carboxamide]: the IC50 was under 100 nM.
For `Cn1nccc1C(=O)Nc1ccc2cc(-c3ccccc3C(F)(F)F)[nH]c2n1` [Example 1/1, 1-Methyl-N-(2-(2-(trifluoromethyl)phenyl)-1H-pyrrolo[2,3-b]pyridin-6-yl)-1H-pyrazole-5-carboxamide] the value was under 100 nM.
The value for `Cn1nccc1C(=O)Nc1ccc2cc(-c3cccc(C(F)(F)F)c3)[nH]c2n1` [Example 1/2, 1-Methyl-N-(2-(3-(trifluoromethyl)phenyl)-1H-pyrrolo[2,3-b]pyridin-6-yl)-1H-pyrazole-5-carboxamide] was 100 to 1000 nM.
As to `Cn1nccc1C(=O)Nc1ccc2cc(-c3cccnc3C(F)(F)F)[nH]c2n1` [Example 1/3, 1-Methyl-N-(2-(2-(trifluoromethyl)pyridin-3-yl)-1H-pyrrolo[2,3-b]pyridin-6-yl)-1H-pyrazole-5-carboxamide], the IC50 was 100 to 1000 nM.
Regarding `Cn1nccc1C(=O)Nc1ccc2cc(-c3ccccc3OC(F)(F)F)[nH]c2n1` [Example 1/4, 1-Methyl-N-(2-(2-(trifluoromethoxy)phenyl)-1H-pyrrolo[2,3-b]pyridin-6-yl)-1H-pyrazole-5-carboxamide], the IC50 is over 1000 nM.
As to `Cn1nccc1C(=O)Nc1ccc2cc(-c3cccc(OC(F)(F)F)c3)[nH]c2n1` [Example 1/5, 1-Methyl-N-(2-(3-(trifluoromethoxy)phenyl)-1H-pyrrolo[2,3-b]pyridin-6-yl)-1H-pyrazole-5-carboxamide], the IC50 was over 1000 nM.
As to `Cn1ncnc1C(=O)Nc1ccc2cc(-c3ccccc3C(F)(F)F)[nH]c2n1` [Example 1/6, 1-Methyl-N-(2-(2-(trifluoromethyl)phenyl)-1H-pyrrolo[2,3-b]pyridin-6-yl)-1H-1,2,4-triazole-5-carboxamide], the IC50 was under 100 nM.
The value for `O=C(Nc1ccc2cc(-c3ccccc3C(F)(F)F)[nH]c2n1)c1ccccn1` [Example 1/7, N-(2-(2-(Trifluoromethyl)phenyl)-1H-pyrrolo[2,3-b]pyridin-6-yl) picolinamide] was under 100 nM; that for `O=C(Nc1ccc2cc(-c3ccccc3C(F)(F)F)[nH]c2n1)c1ccccc1F` [Example 1/8, 2-Fluoro-N-(2-(2-(trifluoromethyl)phenyl)-1H-pyrrolo[2,3-b]pyridin-6-yl)benzamide] was under 100 nM.
As to `O=C(Nc1ccc2cc(-c3ccccc3C(F)(F)F)[nH]c2n1)c1ccc(F)cc1` [Example 1/9, 4-Fluoro-N-(2-(2-(trifluoromethyl)phenyl)-1H-pyrrolo[2,3-b]pyridin-6-yl)benzamide], the IC50 was under 100 nM.
For `O=C(Nc1ccc2cc(-c3ccccc3C(F)(F)F)[nH]c2n1)c1cccnc1` [Example 1/10, N-(2-(2-(Trifluoromethyl)phenyl)-1H-pyrrolo[2,3-b]pyridin-6-yl) nicotinamide] the value was 100 to 1000 nM; for `Cn1ncnc1C(=O)Nc1ccc2cc(-c3cccc(F)c3C(F)(F)F)[nH]c2n1` [Example 1/11, N-(2-(3-Fluoro-2-(trifluoromethyl)phenyl)-1H-pyrrolo[2,3-b]pyridin-6-yl)-1-methyl-1H-1,2,4-triazole-5-carboxamide], under 100 nM; for `Cn1ncnc1C(=O)Nc1ccc2cc(-c3cc(F)ccc3C(F)(F)F)[nH]c2n1` [Example 1/12, N-(2-(5-Fluoro-2-(trifluoromethyl)phenyl)-1H-pyrrolo[2,3-b]pyridin-6-yl)-1-methyl-1H-1,2,4-triazole-5-carboxamide], under 100 nM.
For `Cn1ncnc1C(=O)Nc1ccc2cc(-c3cccc4ccccc34)[nH]c2n1` [Example 1/13, 1-Methyl-N-(2-(naphthalen-1-yl)-1H-pyrrolo[2,3-b]pyridin-6-yl)-1H-1,2,4-triazole-5-carboxamide] the value was under 100 nM; for `Cn1ncnc1C(=O)Nc1ccc2cc(-c3ccc(F)cc3C(F)(F)F)[nH]c2n1` [Example 1/14, N-(2-(4-Fluoro-2-(trifluoromethyl)phenyl)-1H-pyrrolo[2,3-b]pyridin-6-yl)-1-methyl-1H-1,2,4-triazole-5-carboxamide], under 100 nM; for `Cn1ncnc1C(=O)Nc1ccc2cc(-c3ccccc3C(F)F)[nH]c2n1` [Example 1/15, N-(2-(2-(Difluoromethyl)phenyl)-1H-pyrrolo[2,3-b]pyridin-6-yl)-1-methyl-1H-1,2,4-triazole-5-carboxamide], under 100 nM.
For `Cn1ncnc1C(=O)Nc1ccc2cc(-c3cccc4c3CCC4)[nH]c2n1` [Example 1/16, N-(2-(2,3-Dihydro-1H-inden-4-yl)-1H-pyrrolo[2,3-b]pyridin-6-yl)-1-methyl-1H-1,2,4-triazole-5-carboxamide] the value was under 100 nM; for `Cn1ncnc1C(=O)Nc1ccc2cc(-c3ncccc3C(F)(F)F)[nH]c2n1` [Example 1/17, 1-Methyl-N-(2-(3-(trifluoromethyl)pyridin-2-yl)-1H-pyrrolo[2,3-b]pyridin-6-yl)-1H-1,2,4-triazole-5-carboxamide], over 1000 nM; for `COc1ccccc1-c1cc2ccc(NC(=O)c3ncnn3C)nc2[nH]1` [Example 1/18, N-(2-(2-Methoxyphenyl)-1H-pyrrolo[2,3-b]pyridin-6-yl)-1-methyl-11H-1,2,4-triazole-5-carboxamide], 100 to 1000 nM.
For `O=C(Nc1ccc2cc(-c3ccccc3C(F)(F)F)[nH]c2n1)c1cc2ccoc2cn1` [Example 1/19, N-(2-(2-(Trifluoromethyl)phenyl)-1H-pyrrolo[2,3-b]pyridin-6-yl)furo[2,3-c]pyridine-5-carboxamide], the IC50 lay in the range of 100 to 1000 nM.
Regarding `Cc1nonc1C(=O)Nc1ccc2cc(-c3ccccc3C(F)(F)F)[nH]c2n1` [Example 1/20, 4-Methyl-N-(2-(2-(trifluoromethyl)phenyl)-1H-pyrrolo[2,3-b]pyridin-6-yl)-1,2,5-oxadiazole-3-carboxamide], the IC50 is under 100 nM.
For `Cn1cnnc1C(=O)Nc1ccc2cc(-c3ccccc3C(F)(F)F)[nH]c2n1` [Example 1/21, 4-Methyl-N-(2-(2-(trifluoromethyl)phenyl)-1H-pyrrolo[2,3-b]pyridin-6-yl)-4H-1,2,4-triazole-3-carboxamide] the value was 100 to 1000 nM.
For `O=C(Nc1ccc2cc(-c3ccccc3C(F)(F)F)[nH]c2n1)c1ncc2ccccn12` [Example 1/22, N-(2-(2-(trifluoromethyl)phenyl)-1H-pyrrolo[2,3-b]pyridin-6-yl)imidazo[1,5-a]pyridine-3-carboxamide] the value was under 100 nM.

For the origin of these results see patent US10981908B2, “Aryl hydrocarbon receptor (AHR) modulator compounds” (PHENEX PHARMACEUTICALS AG, priority 2017, dated 2021).
